22 molecules from ChEMBL document CHEMBL4196103, “Bioactive Sesquiterpenoids from the Peeled Stems of Syringa pinnatifolia” (J Nat Prod, 2018) can be followed below.

Activity calls are given as the source filed them. The rule behind the calls is not given here. A value given as a limit tells only on which side of the number the result lay.

Series [1] relates to RAW264.7. The experiment in a line: Antiinflammatory activity against mouse RAW264.7 cells assessed as inhibition of LPS-induced NO production at 80 uM preincubated for 2 hrs followed by LPS stimulation measured after 24 hrs by Griess reagent based assay relative to control. In kind it is functional. A general note: Nitrite, measured by Griess reagent, commonly stands in for NO production.

In series [2] the test system is RAW264.7. The experiment in a line: Antiinflammatory activity against mouse RAW264.7 cells assessed as inhibition of LPS-induced NO production preincubated for 2 hrs followed by LPS stimulation measured after 24 hrs by Griess reagent based assay. The series is classed as functional, cell-based.
The test system of series [3] is RAW264.7. Kind of series: Antiinflammatory activity against mouse RAW264.7 cells assessed as inhibition of LPS-induced TNFalpha production preincubated for 1 hr followed by LPS stimulation measured after 24 hrs by ELISA. The series is classed as functional, cell-based.
Series [4] deals with RAW264.7. The experiment in a line: Antiinflammatory activity against mouse RAW264.7 cells assessed as inhibition of LPS-induced IL-6 production preincubated for 1 hr followed by LPS stimulation measured after 24 hrs by ELISA. The series is classed as functional, cell-based. In general terms: In an ELISA, binding on a coated surface is turned into a signal by an enzyme label.

The species entered for the next series is Mus musculus. The experiment in a line: Protection against hypoxia-induced injury in […] cells assessed as increase in cell viability at 40 uM incubated for 20 hrs under hypoxia condition by CCK-8 assay. In kind it is functional, cell-based.
Series [5] in a line: Cytotoxicity against […] cells assessed as decrease in cell viability at 20 uM incubated for 24 hrs by CCK-8 assay. In kind it is cell-based. A general note: Tetrazolium assays rely on reduction of a dye to a coloured formazan, in cell work by metabolically active cells.

In general, inhibition refers to the percentage by which the read-out fell short of the control. On to `C=C1CC[C@H](O)[C@H](C)C(=O)C[C@@H]2[C@@H]1CC2(C)C`, for which, in the series on RAW264.7 [1], the inhibition at 80 µM was less than 50%.

Consider `CC1(C)C/C=C(/C=O)CC[C@@H]2[C@@H]1CC(=O)[C@@]2(C)O`, for which, in the series on RAW264.7 [1], the inhibition at 80 µM was less than 50%.

In general, IC50 refers to the concentration that gives 50% inhibition. Regarding `C/C1=C\CC[C@@]2(C)O[C@@H]2CC(C)(C)/C=C/C1=O` [ZERUMBONE EPOXIDE], the IC50 with RAW264.7 [2] is 22.3 µM. In addition, the inhibition entry with RAW264.7 [3] and with RAW264.7 [4] was “Dose-dependent effect” in each case.

On to `CO[C@@H]1CC/C(C)=C/CC(C)(C)/C=C/C(=O)[C@H]1CO`, for which the outcome in the series filed under Mus musculus was Active. Also, the IC50 in the series with RAW264.7 [2] was 27.2 µM. In addition, the inhibition result in the series with RAW264.7 [3] and with RAW264.7 [4] was “Dose-dependent effect” in each case.

Consider `CO[C@H]1CC/C(C)=C/CC(C)(C)/C=C/C(=O)[C@@H]1CO`, for which the IC50 with RAW264.7 [2] worked out at 41.4 µM. Also, the inhibition result in the series with RAW264.7 [3] and with RAW264.7 [4] was “Dose-dependent effect” throughout.

Regarding `C=C1CC[C@H]2O[C@]2(C)[C@@H](O)C[C@@H]2[C@@H]1CC2(C)C` [SUBEROSOL A], in the series on RAW264.7 [1], the inhibition at 80 µM is less than 50%.

Consider `C/C1=C\CC(C)(C)/C=C/C(=O)/C(CO)=C/CC1`, for which the Activity entry in series [5] is recorded as “Toxic”.

As to `C/C1=C\CC(C)(C)/C=C/[C@H](O)[C@H](C)CCC1`, the inhibition at 80 µM in the series with RAW264.7 [1] was less than 50%.

As for `C/C1=C\CC[C@@]2(C)O[C@@H]2[C@@H](O)C(C)(C)/C=C/C1=O`, the inhibition at 80 µM in the series on RAW264.7 [1] was less than 50%.

Take `C/C1=C\CC(C)(C)/C=C/C(=O)[C@@H](C)[C@@H](O)CC1`: in the series with RAW264.7 [1], the inhibition at 80 µM was less than 50%.

`CO[C@@H]1CC[C@@]2(C)O[C@@H]2CC(C)(C)/C=C/C(=O)[C@@H]1C`: in the series on RAW264.7 [1], the inhibition at 80 µM was less than 50%.

For the molecule `CCC(=O)/C=C/C(C)(C)C/C=C(\C)CCC=O`, the inhibition at 80 µM with RAW264.7 [1] is less than 50%.

For `C/C1=C\C[C@H](O)[C@]2(C)O[C@H]2CC(C)(C)/C=C/C1=O`, in the series with RAW264.7 [1], the inhibition at 80 µM is less than 50%.

On to `C/C1=C\CC(C)(C)/C=C/C(=O)[C@H](CO)CCC1`, for which the IC50 in the series on RAW264.7 [2] stood at 33.1 µM. Further, the inhibition result in the series with RAW264.7 [3] and in the series on RAW264.7 [4] was “Dose-dependent effect” each time.

In the case of `CO[C@H]1CC[C@]2(C)O[C@H]2CC(C)(C)/C=C/C(=O)[C@H]1C`, in the series with RAW264.7 [1], the inhibition at 80 µM was less than 50%.

For `COC1CC/C(C)=C/CC(C)(C)/C=C/C(=O)C1CO` (centres undefined), the outcome in the series listed under Mus musculus was Active. For the same molecule, the IC50 in the series on RAW264.7 [2] was 18.1 µM. In addition, the inhibition entry in the series on RAW264.7 [3] and in the series with RAW264.7 [4] was “Dose-dependent effect” in each case.

As for `C/C1=C\CC(C)(C)/C=C/C(=O)/C(C)=C/CC1` [ZERUMBONE], the outcome in the series listed under Mus musculus was Active. Further, in the series with RAW264.7 [2], the IC50 worked out at 13.6 µM. In addition, the inhibition entry in the series with RAW264.7 [3] and in the series on RAW264.7 [4] was “Dose-dependent effect” each time.

Consider `CC1(C)C/C=C(/C=O)CC[C@H]2[C@H]1CC(=O)[C@]2(C)O`, for which, in the series on RAW264.7 [1], the inhibition at 80 µM is less than 50%.

As for `C/C1=C\CC(C)(C)/C=C/C(=O)[C@H](C)[C@H](O)CC1`, the inhibition at 80 µM in the series on RAW264.7 [1] was less than 50%.

On to `C/C1=C\CC(C)(C)/C=C/C(=O)[C@@H](CO)CCC1`, for which, in the series with RAW264.7 [2], the IC50 was 70.6 µM. For the same molecule, the inhibition entry in the series on RAW264.7 [3] and in the series with RAW264.7 [4] was “Dose-dependent effect” throughout.

For `C=C1C(=O)C/C=C(\C)[C@@H](O)C[C@@H]2[C@@H]1CC2(C)C`, in the series on RAW264.7 [1], the inhibition at 80 µM is less than 50%.

As for `COc1ccc2c(c1)c(CC(=O)O)c(C)n2C(=O)c1ccc(Cl)cc1` [INDOMETHACIN], in the series on RAW264.7 [2], the IC50 is 33.6 µM.
